From patent publication US9649295B2, “Chemical inhibitors of soluble adenylyl cyclase (sAC)” (Cornell Research Foundation, Inc., priority 2004, dated 2017)

What was measured:
[1] = biological target: T1, purified solubilized version of Type VII tmAC (sol.AC7) (Homo sapiens, UniProt P51828); assay: in vitro cyclase activity of purified solubilized Type VII tmAC; format: biochemical; conditions: read-out: in vitro IC50 pure sol.AC7
T1 construct: a mixture of purified catalytic domains, C1 and C2, from Type VII tmAC; made in house

[2] = test system: CREB phosphorylation in isolated nuclei; assay: CREB phosphorylation in isolated HeLa nuclei (P2), Western analysis; format: biochemical; conditions: 40 mM bicarbonate, 50 μM KH7
Procedure: The resuspended pellet and 60% OptiPrep iodixanol were mixed (30% OptiPrep final) and centrifuged at 10,000 g for 20 min. The supernatant was removed and the nuclei-enriched pellet (P2) was resuspended in TM-2 buffer without detergent.
Reactions were stopped by the addition of 20 μl of SDS sample buffer (CREB phosphorylation) or by being placed into a 100° C. heat block for 3 min (adenylyl cyclase).
For whole cell and isolated nuclei CREB phosphorylation assays, equal cell or nuclear equivalents were separated under reducing conditions using a 10% SDS-PAGE, transferred to a PVDF membrane, and probed for CREB (rabbit polyclonal antiserum; Chemicon, Temecula, Calif.) and phosphorylated CREB (rabbit polyclonal antiserum; Upstate Biotechnology, Temecula, Calif.). HRP-conjugated secondary antibodies were used, and bands were visualized using ECL. Image analysis software (model Fluorchem 8800; Alpha Innotech, San Leandro, Calif.) was used to quantitate Western results. Intensities of phospho-CREB bands were normalized to total CREB.

[3] = test system: INS-1E cells; assay: insulin release in INS-1E cells; format: cell-based; conditions: for effect on PMA induced insulin release: PMA 300 nM, 2.5 mM glucose, KH7 30 μM
Procedure: (§1) Briefly, cells (passage 140-150) were plated at 2.5×10^5 cells/well in a 24 well plate and permitted to recover for two days. Cells were glucose starved by incubation for 1 hour in the presence of 2.5 mM glucose KRB medium supplemented with 2 mM sodium bicarbonate, 10 mM Hepes, and 0.1% BSA. After washing, cells were incubated in KRB with either 2.5 mM or 16 mM glucose in the presence of either vehicle control (DMSO or MeOH) or indicated drug. After the indicated time, removed media was cleared of cell debris and secreted insulin was measured by Insulin ELISA kit (Linco Research, St. Charles, Mo., or ALPCO, Windham, N.H.). If cAMP was to be concomitantly measured, cells were pre-treated with IBMX for the final 10 minutes of the glucose starvation and IBMX was included in all subsequent incubations. For the washout experiment, subsequent to initial insulin determination, cells treated with KH7 were placed in fresh KRB (2.5 mM glucose) for an additional hour and insulin release was measured as above in the absence of any added drug. For transferrin recycling, loading of cells with I^125 transferrin was performed during hour incubation in 2.5 mM glucose KRB.

[4] = test system: cAMP in INS-1E cells; assay: intracellular cAMP in INS-1E cells; format: cell-based
Procedure: as §1

[5] = test system: primary mouse islets; assay: insulin release from isolated mouse islets; format: cell-based; conditions: 16.7 mM glucose, 30 minutes, 30 μM KH7
Procedure: After several washes with Hank's Balanced Salt Solution, islets were hand-picked and 15-20 islets were distributed into each well of a 12 well plate to adhere overnight in RPMI-1640 media supplemented with 10 mM HEPES, 5.6 mM glucose, 10% FBS, 2 mM L-glutamine, 1 mM sodium pyruvate, and antibiotics.
Insulin release from isolated islets was performed in 12 well plates. Islets were preincubated in KRB (2.8 mM glucose) for 1 hour followed by incubation for 30 minutes in 2.8 mM glucose KRB in the presence of drug. The same wells were then incubated for an additional 30 minutes in 16.7 mM glucose KRB in the presence of the same drugs. Media was removed, cleared of cells, and insulin was measured.

[6] = test system: sAC overexpressing INS-1E cells; assay: insulin secretion in sAC overexpressing INS-1E cells (SF2); format: cell-based; conditions: 30 μM KH7, 15 minutes
From the text: FIGS. 14A-C illustrate that sAC-generated cAMP, distinct from tmAC-generated cAMP, is sufficient to elicit insulin secretion. […] Shown is a representative assay repeated at least five times; values indicate duplicate determinations with standard deviations. […] Shown is a representative assay repeated at least five times; values indicate duplicate determinations with standard deviations. Insert is a Western blot indicating the levels of sAC protein in INS-1E, SF2, and SF5 cells. […] Values represent mean±SEM (n=3). ANOVA analysis was performed with asterisks indicating statistically significant differences. ***=p<0.001. […]
Briefly, cells (passage 140-150) were plated at 2.5×10^5 cells/well in a 24 well plate and permitted to recover for two days. […] After the indicated time, removed media was cleared of cell debris and secreted insulin was measured by Insulin ELISA kit (Linco Research, St. Charles, Mo., or ALPCO, Windham, N.H.). If cAMP was to be concomitantly measured, cells were pre-treated with IBMX for the final 10 minutes of the glucose starvation and IBMX was included in all subsequent incubations. For the washout experiment, subsequent to initial insulin determination, cells treated with KH7 were placed in fresh KRB (2.5 mM glucose) for an additional hour and insulin release was measured as above in the absence of any added drug. […]

[7] = glucose tolerance test in C57BL/6 mice; format: in vivo, mouse
Procedure: C57B1/6 adult male mice were maintained on a 12 hour light/dark cycle, with free access to water and standard laboratory chow (Research Animal Resource Center, Weill Medical College of Cornell University). Animals were treated in accordance with our institutions guidelines. After a 14-16 hour overnight fast with free access to water, blood was removed from the tail vein for glucose (Hemocue B-Glucose Microcuvette and Analyzer; Hemocue, Inc., Lake Forest, Calif.) and insulin (Rat/Mouse Insulin ELISA Kit; Linco Research) measurements. Mice then received an i.p injection of 100 mM KH7 (100 μmoles/kg) or vehicle control. Twenty minutes later, both groups were injected i.p. with 1 g/kg glucose (20% solution). Blood samples were taken from the tail vein at times indicated, and glucose and insulin were quantitated according to manufacturer's instructions.

[8] = toxicity observation and post-mortem analysis in mice; format: in vivo, mouse; conditions: single injection
[9] = test system: Plasmodium falciparum; assay: Plasmodium falciparum viability, luciferase assay; format: cell-based; conditions: 24 hours
Procedure: . Plasmodium cultures were incubated in the indicated concentrations of KH7 or KH7.15 for 24 hours and viability assessed by luciferase assay (FIG. 16A). […].
Therefore, the effect of sAC inhibitors on P. falciparum viability was tested. […].

[10] = biological target: catalytic portion of the sAC-like adenylyl cyclase from Candida albicans (fragment JR3) (Candida albicans, UniProt A0A1D8PR83); assay: biochemical
From the text: (§2) . FIG. 17A illustrates the bicarbonate dependence of the JR3 fragment; […];

[11] = test system: Candida albicans; assay: CO2 induced differentiation of Candida albicans into the filamentous stage; format: cell-based; conditions: similar dose dependency as on JR3
From the text: as §2

[12] = 16 mM glucose, 30 μM KH7, 30 μM KH7.15, 50 μM 2-hydroxyestradiol, 50 μM 2′5′ddAdo

T1 sequence (P51828 279-406 limits assumed): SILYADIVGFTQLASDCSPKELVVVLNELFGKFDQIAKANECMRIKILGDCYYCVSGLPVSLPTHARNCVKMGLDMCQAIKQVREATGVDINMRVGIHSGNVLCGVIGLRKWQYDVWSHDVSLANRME
T1 sequence (P51828 879-1023 limits assumed): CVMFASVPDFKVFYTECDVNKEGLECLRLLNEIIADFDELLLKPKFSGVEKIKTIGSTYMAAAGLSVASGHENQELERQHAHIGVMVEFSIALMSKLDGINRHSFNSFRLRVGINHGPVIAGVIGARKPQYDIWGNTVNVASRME
Chain of catalytic portion of the sAC-like adenylyl cyclase from Candida albicans (fragment JR3) (A0A1D8PR83 entry or part of it): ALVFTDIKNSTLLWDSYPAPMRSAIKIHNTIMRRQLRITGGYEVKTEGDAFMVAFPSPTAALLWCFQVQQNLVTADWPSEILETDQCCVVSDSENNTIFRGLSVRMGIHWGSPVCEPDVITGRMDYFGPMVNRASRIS

Compound: CC(Sc1nc2ccccc2[nH]1)C(=O)N/N=C/c1cc(Br)ccc1O (centres unmarked) [KH7]
- IC50 [1]: > 55 µM
- effect on bicarbonate-induced CREB phosphorylation [2]: effective in preventing bicarbonate-induced CREB phosphorylation
- rescue of KH7 inhibition of GSIS by cAMP analog ([3]; 50 μM KH7, 1 mM 8-Br-SpcAMP): rescued by addition of a membrane-permeable cAMP analog
- effect on glucose-stimulated insulin secretion (GSIS) [3, 12]: blocked all insulin release induced by high glucose
- cellular toxicity ([3]; INS-1E cells): not due to cellular toxicity
- IC50 ([3]; INS-1E, 0.5 h, 16 mM glucose, 30 minutes, read-out: IC50 for inhibition of glucose-stimulated insulin secretion (GSIS)): ~5 µM
- effect on PMA induced insulin release ([3]; 30 minutes): unaffected
- effect on PMA induced insulin release ([3]; 30 minutes, listed as K17): does not affect
- insulin release over time after addition of high glucose ([3]; in the presence of KH7): no significant insulin release was observed up to 45 minutes
- GSIS after drug washout ([3]; sixty minutes following removal of drug): normal GSIS was restored
- IC50 for blocking glucose-induced cAMP, compared with sAC inhibition [4]: matched its dose response of sAC inhibition
- effect on cAMP induced by high glucose [4, 12]: blocked the cAMP induced by the presence of high glucose
- effect on insulin release induced by high glucose in islets [5]: inhibited insulin release induced by high glucose
- effect on sAC overexpression-induced increase in insulin release [6]: inhibited
- glucose-induced serum insulin release ([7]; 100 μmoles/kg KH7 i.p., 1 g/kg glucose i.p.): no statistically significant glucose-induced insulin release was detected
- glucose tolerance ([7]; 100 μmoles/kg [49 mg/kg] KH7 i.p., 1 g/kg glucose i.p.): glucose intolerant
- glucose tolerance test one week after injection ([7]; one week after KH7, no further drug, n=2): normal glucose tolerance and insulin response
- behavior or stressful responses to injection [8]: did not elicit any behavior or stressful responses inconsistent with a simple saline injection
- toxicity to mice [8]: did not appear to be toxic
- anatomical, histological, and blood post-mortem analysis ([8]; within 48 hours after drug treatment): no significant toxicology or histological pathology
- effect on infectious growth in red blood cells [9]: rapidly (in a single generation) and potently affected
- IC50 [10]: ~23 µM
- effect on CO2 induced differentiation into the filamentous, infectious stage [11]: dose dependently inhibited
